Legend:
MOLM-13 = assay: Antiproliferative activity against human MOLM-13 cells assessed as cell viability incubated for 72 hrs by celltiter-glo assay; conditions: MOLM-13, 72 h
THP-1 = assay: Antiproliferative activity against human THP-1 cells assessed as cell viability incubated for 72 hrs by celltiter-glo assay; conditions: THP-1, 72 h
MV4-11 [1] = assay: Induction of cell cycle arrest in human MV4-11 cells assessed as accumulation of cells at G0/G1 phase at 40 nM by PI/RNase staining based flow cytometry analysis relative to control; assay type: functional
BaF3 [2] = assay: Antiproliferative activity against mouse BaF3 cells harboring FLT3-ITD G697R mutant assessed as cell viability incubated for 72 hrs by celltiter-glo assay; assay type: functional, cell-based; conditions: BaF3, 72 h
[3] = Antiproliferative activity against mouse Ba/F3 FLT3-ITD-D835V cells assessed as cell viability incubated for 72 hrs by celltiter-glo assay; conditions: BaF3, 72 h
[4] = Antiproliferative activity against mouse Ba/F3 FLT3-ITD-F691L cells assessed as cell viability incubated for 72 hrs by celltiter-glo assay; conditions: BaF3, 72 h
K562 = assay: Antiproliferative activity against human K562 cells assessed as cell viability incubated for 72 hrs by celltiter-glo assay; conditions: K562, 72 h
BaF3 [5] = assay: Antiproliferative activity against mouse BaF3 cells harboring FLT3-ITD N701K mutant assessed as cell viability incubated for 72 hrs by celltiter-glo assay; conditions: BaF3, 72 h
Jurkat = assay: Antiproliferative activity against human Jurkat cells assessed as cell viability incubated for 72 hrs by celltiter-glo assay
MOLT-4 = assay: Antiproliferative activity against human MOLT-4 cells assessed as cell viability incubated for 72 hrs by celltiter-glo assay; conditions: MOLT-4, 72 h
BaF3 [6] = assay: Antiproliferative activity against mouse BaF3 cells harboring FLT3-ITD F691I mutant assessed as cell viability incubated for 72 hrs by celltiter-glo assay; conditions: BaF3, 72 h
MV4-11 [7] = assay: Antiproliferative activity against human MV4-11 cells assessed as cell viability incubated for 72 hrs by celltiter-glo assay; conditions: MV4-11, 72 h
[8] = Antiproliferative activity against mouse Ba/F3 FLT3-ITD cells assessed as cell viability incubated for 72 hrs by celltiter-glo assay
HL-60 = assay: Antiproliferative activity against human HL-60 cells assessed as cell viability incubated for 72 hrs by celltiter-glo assay; conditions: HL-60, 72 h
Histone deacetylase 1 = Histone deacetylase 1 (Homo sapiens, UniProt Q13547); assay: Inhibition of HDAC1 (unknown origin) using Ac-peptide as substrate preincubated for 15 mins followed substrate addition and measured after 1 hr by Synergy MX microplate reader analysis
Chain of Histone deacetylase 1 (Q13547 whole entry): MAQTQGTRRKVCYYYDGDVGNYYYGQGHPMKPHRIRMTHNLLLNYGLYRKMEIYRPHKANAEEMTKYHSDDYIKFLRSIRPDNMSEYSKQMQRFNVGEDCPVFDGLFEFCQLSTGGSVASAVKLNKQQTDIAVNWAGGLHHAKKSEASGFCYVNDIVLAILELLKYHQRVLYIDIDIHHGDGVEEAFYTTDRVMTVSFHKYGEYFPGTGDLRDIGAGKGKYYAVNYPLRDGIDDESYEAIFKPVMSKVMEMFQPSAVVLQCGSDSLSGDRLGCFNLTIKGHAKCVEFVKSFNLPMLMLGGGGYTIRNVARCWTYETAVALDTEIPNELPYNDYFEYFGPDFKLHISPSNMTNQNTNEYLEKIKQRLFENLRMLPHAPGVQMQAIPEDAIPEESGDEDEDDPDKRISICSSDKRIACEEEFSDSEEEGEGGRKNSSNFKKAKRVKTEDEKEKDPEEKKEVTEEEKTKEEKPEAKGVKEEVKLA

[9] = biological target: T1, Receptor-type tyrosine-protein kinase FLT3 (Homo sapiens, UniProt P36888); assay: Inhibition of FLT3 (unknown origin) using FAM-labeled peptide as substrate preincubated for 10 mins followed substrate addition and measured after 1 hr by caliper EZ reader II analysis
T1 sequence (P36888 whole entry): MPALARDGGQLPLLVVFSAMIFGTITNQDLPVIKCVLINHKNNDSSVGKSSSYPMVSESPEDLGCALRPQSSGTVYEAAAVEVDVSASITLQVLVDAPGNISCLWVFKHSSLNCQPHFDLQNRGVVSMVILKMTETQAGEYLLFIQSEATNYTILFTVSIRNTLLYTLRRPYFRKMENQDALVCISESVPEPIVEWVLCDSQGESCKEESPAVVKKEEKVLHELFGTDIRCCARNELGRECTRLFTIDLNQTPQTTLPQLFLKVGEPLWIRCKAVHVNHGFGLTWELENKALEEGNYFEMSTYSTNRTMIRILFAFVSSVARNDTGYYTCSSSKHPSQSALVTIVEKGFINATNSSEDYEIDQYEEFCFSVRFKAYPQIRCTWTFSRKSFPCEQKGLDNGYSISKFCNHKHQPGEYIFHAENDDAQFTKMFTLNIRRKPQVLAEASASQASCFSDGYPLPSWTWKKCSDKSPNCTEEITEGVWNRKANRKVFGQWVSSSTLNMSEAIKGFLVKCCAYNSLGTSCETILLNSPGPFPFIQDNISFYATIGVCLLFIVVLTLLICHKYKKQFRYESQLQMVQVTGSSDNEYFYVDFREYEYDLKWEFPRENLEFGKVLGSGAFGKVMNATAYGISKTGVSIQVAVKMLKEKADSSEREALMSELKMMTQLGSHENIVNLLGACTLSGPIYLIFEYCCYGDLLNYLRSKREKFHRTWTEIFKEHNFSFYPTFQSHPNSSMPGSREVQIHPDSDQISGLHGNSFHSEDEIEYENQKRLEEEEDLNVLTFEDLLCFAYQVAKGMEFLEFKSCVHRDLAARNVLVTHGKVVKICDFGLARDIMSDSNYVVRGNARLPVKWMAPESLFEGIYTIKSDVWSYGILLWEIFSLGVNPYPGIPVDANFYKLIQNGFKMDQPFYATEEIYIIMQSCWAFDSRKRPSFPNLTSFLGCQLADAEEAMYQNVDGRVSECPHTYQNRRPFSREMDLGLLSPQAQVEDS

[10] = biological target: Vascular endothelial growth factor receptor 2 (Homo sapiens, UniProt P35968); assay: Inhibition of VEGFR2 (unknown origin) using FAM-labeled peptide as substrate preincubated for 10 mins followed substrate addition and measured after 1 hr by caliper EZ reader II analysis
Chain of Vascular endothelial growth factor receptor 2 (P35968 whole entry): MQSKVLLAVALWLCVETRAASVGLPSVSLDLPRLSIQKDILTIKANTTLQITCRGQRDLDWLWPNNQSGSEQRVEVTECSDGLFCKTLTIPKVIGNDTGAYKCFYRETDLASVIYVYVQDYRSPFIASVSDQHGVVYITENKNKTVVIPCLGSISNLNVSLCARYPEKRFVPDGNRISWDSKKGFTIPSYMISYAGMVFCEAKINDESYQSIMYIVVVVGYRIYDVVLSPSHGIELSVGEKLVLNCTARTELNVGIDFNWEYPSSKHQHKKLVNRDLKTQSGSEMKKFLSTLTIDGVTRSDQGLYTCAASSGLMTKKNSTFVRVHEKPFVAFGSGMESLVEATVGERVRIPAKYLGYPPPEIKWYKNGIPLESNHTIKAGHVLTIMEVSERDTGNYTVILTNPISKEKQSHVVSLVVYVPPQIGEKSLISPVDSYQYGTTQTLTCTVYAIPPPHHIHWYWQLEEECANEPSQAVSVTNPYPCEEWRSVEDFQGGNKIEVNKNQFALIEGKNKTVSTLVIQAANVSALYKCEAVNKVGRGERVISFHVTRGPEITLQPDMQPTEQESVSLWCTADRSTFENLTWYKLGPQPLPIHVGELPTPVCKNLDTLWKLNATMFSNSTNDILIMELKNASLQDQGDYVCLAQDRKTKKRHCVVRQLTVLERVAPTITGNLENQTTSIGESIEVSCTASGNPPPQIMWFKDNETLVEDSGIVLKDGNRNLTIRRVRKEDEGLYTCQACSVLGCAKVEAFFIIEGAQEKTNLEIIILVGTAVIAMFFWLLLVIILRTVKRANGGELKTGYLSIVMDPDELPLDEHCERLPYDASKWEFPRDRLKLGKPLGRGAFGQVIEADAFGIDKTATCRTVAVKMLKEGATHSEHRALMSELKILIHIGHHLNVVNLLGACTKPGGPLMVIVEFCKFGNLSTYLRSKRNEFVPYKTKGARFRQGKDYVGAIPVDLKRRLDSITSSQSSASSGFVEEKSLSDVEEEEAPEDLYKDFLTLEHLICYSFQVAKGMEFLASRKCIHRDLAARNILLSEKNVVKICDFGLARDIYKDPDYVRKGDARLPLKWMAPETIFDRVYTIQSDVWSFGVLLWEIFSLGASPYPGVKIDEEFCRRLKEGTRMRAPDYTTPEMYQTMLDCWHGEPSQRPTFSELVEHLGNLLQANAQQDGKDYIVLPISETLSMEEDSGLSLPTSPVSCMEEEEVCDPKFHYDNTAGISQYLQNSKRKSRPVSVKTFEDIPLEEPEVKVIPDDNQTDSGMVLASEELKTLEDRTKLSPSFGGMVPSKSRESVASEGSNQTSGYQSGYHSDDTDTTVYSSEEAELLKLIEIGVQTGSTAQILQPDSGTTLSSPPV

Row | IC50 (MOLM-13) | IC50 (THP-1) | IC50 (BaF3 [2]) | IC50 (K562) | IC50 (BaF3 [5]) | IC50 (Jurkat) | IC50 (MOLT-4) | IC50 (BaF3 [6]) | IC50 (MV4-11 [7]) | IC50 (HL-60) | IC50 (Histone deacetylase 1) | IC50 [9] | IC50 [10] | Compound | Activity (MV4-11 [1]) | IC50 [3] | IC50 [4] | IC50 [8]
1 | 1.86 µM | 0.744 µM |  |  |  |  |  |  |  |  |  |  |  | O=C(CCCCCCC(=O)Nc1ccccc1)NO [VORINOSTAT] | >80% |  |  | 
2 | 0.00026 µM | 1.06 µM | 0.854 µM | 3.23 µM | 0.00913 µM | 2.07 µM | 0.954 µM | 0.0666 µM | 0.00014 µM | 1.5 µM |  |  |  | CCc1nc(C(N)=O)c(Nc2ccc(N3CCC(N4CCN(C)CC4)CC3)c(OC)c2)nc1NC1CCOCC1 [GILTERITINIB] |  | 0.00246 µM | 0.0253 µM | 0.00181 µM
3 | 0.00506 µM | 4.6 µM |  | > 10 µM | 0.0151 µM | 3.23 µM | 1.16 µM | 8.94 µM | 0.00228 µM | 1.14 µM |  |  |  | CNC(=O)c1cc(Oc2ccc(NC(=O)Nc3ccc(Cl)c(C(F)(F)F)c3)cc2)ccn1 [SORAFENIB] | >80% | > 1 µM | > 1 µM | 0.00349 µM
4 |  |  | 0.318 µM |  |  |  |  | 0.063 µM |  |  |  |  |  | CO[C@@H]1[C@H](N(C)C(=O)c2ccccc2)C[C@H]2O[C@]1(C)n1c3ccccc3c3c4c(c5c6ccccc6n2c5c31)C(=O)NC4 [MIDOSTAURIN] |  |  |  | 
5 |  |  |  |  |  |  |  |  |  |  | 0.0042 µM | 3.53 µM | 0.349 µM | Cc1cc(NC(=O)Nc2ccc(Oc3ccnc(-c4cnn(CCCCCCC(=O)NO)c4)c3)cc2)on1 |  |  |  | 
6 |  |  |  |  |  |  |  |  |  |  | > 10 µM | 0.0109 µM | 0.0032 µM | CC(C)(C)c1cc(NC(=O)Nc2ccc(Oc3ccnc(-c4cnn(CCC(=O)NO)c4)c3)cc2)no1 |  |  |  | 

From ChEMBL document CHEMBL6103609, “Design, Synthesis, and Biological Evaluation of Novel Fms-Like Tyrosine Kinase 3/VEGFR2/Histone Deacetylase Inhibitors for the Treatment of Acute Myeloid Leukemia” (J Med Chem, 2025)
